{"source": "patent US20130184316A1", "about": "“METHODS FOR DIAGNOSING AND TREATING CONCUSSIVE DISORDERS” (priority 2010, published 2013)", "key": {"[1]": {"test_system": "demyelinated axons", "conditions": "experimental and clinical settings, literature; cited from earlier work"}, "[2]": {"test_system": "subject with PCS", "assay": "Videonystagmography (VNG)", "assay_type": "in vivo, human", "experimental": "A single subject, prospective, double blind, placebo controlled trial of 4AP was then conducted in this individual. IRB approvals were obtained from all participating institutions and Subject gave written informed consent for all parts of the study. After a 4-week medication washout period, the Subject was randomly assigned a week's course of placebo, followed by a weeklong medication washout period, followed by another week on 4-AP (10 mg twice daily). Based on the medication half-life, a one week washout period was presumed to be sufficient. Subject and assessors were blinded to treatment allocation.\nMeasurements conducted at identical times at baseline and on each of the subsequent 3 weeks of the study included: • Balance and mobility assessed by Hi-Mat test (Arch. Phys. Med. Rehabil. 2006, 87(3), 437-442; hereby incorporated by reference in its entirety). • Subjective symptom assessment using the Rivermead Post-Concussion Questionnaire (Clin. Rehabil. 2005, 19(8), 878-887; hereby incorporated by reference in its entirety). • Neuropsychological assessment, consisting of the digit span and cancellation tests from the Wechsler Adult Intelligence Scale, 4th edition (Coalson, D. L., Engi-Raiford, S. Wechsler Adult Intelligence Scale, 4th Ed., in Technical and Interpretive Manual, 4th Ed., San Antonio: Pearson (2008); hereby incorporated by reference in its entirety), the California Verbal Learning Test II (CVLT) (Delis, D. C., Kramer, J. H., Kaplan, E., Ober, B. A. in CVLT-II Manual, San Antonio: The Psychological Corporation (2000); hereby incorporated by reference in its entirety), the Verbal Fluency Test (Connors Continuous Performance Test Computer II Program Version 5 Users Manual, Toronto: Multi-Health Systems, Inc. (2002); hereby incorporated by reference in its entirety), and the Connors Continuous Performance Test (J. Nervous Ment. Dis. 1985, 173(6), 353-357; hereby incorporated by reference in its entirety). • Videonystagmography (VNG) and rotary chair (RC) vestibular testing\nBased on the observation of significant central findings on videonystagmography and rater-observed reduction in abnormal movements while on the active medication, the Subject was asked to return for 2 additional rounds of open-label testing, 5 and 9 weeks after conclusion of the formal study. The Subject resumed taking 4AP 10 mg twice daily immediately after the conclusion of the blinded testing."}, "[3]": {"test_system": "downbeat nystagmus (DBN)", "conditions": "literature reports; cited from earlier work"}, "[4]": {"test_system": "subject with PCS", "assay": "PCS Symptom Cluster Scale, weighted point system", "assay_type": "in vivo, human", "parameters": "key to Raw score: Vertigo / Raw score: Persistence or perseveration of proprioceptive sensations (e.g., feeling motion after coming to rest) / Raw score: Diplopia / Raw score: Impairment of gait: 0 never, 1 sometimes, 2 often, 3 always/nearly always present; key to Weighted Score: Vertigo / Weighted Score: Insomnia / Weighted Score: Difficulty in standing for more than 5 minutes: raw frequency score (0-3) multiplied by weight factor", "conditions": "after therapy with 4-AP", "excerpt": "In one embodiment, a point system is presented in which symptoms from each cluster are further assigned a point value. The evaluation should rate the frequency of each symptom over the span of about one week prior to the assessment, according to the following scale: 0—Never present, 1—Sometimes present, 2—Often present, 3—Always or Nearly always present. In this context, occurrence of a symptom from about 1 to 5 times per week would classify as sometimes present, occurrence from about 5 to about 10 times per week would classify as often present, and occurrence about 10 or more times per week would classify as always or nearly always present. The rating number for each item should be recorded as the raw score. Each raw score should then be multiplied by the weight factor to obtain the weighted score.\nTo achieve this goal, a point system was applied to discrete symptoms within symptom Clusters to specifically define a class of PCS patient that will be likely to benefit from treatment from 4-AP. According to the weighted point system, symptoms from each cluster are further assigned a point value. The frequency of each symptom over the span of about one week prior to the assessment was rated according to the following scale: 0—Never present, 1—Sometimes present, 2—Often present, 3—Always or Nearly always present. The rating number for each item was recorded as the raw score, and the raw score was then multiplied by the weight factor to obtain the weighted score."}, "[5]": {"conditions": "Cluster A, raw score x weight 1, prior to therapy 3"}, "[6]": {"conditions": "Cluster A, raw score x weight 3, prior to therapy 6"}, "[7]": {"conditions": "Cluster B, raw score x weight 4, prior to therapy 8"}, "[8]": {"conditions": "Cluster C, raw score x weight 2, prior to therapy 2"}, "[9]": {"conditions": "Cluster C, raw score x weight 3, prior to therapy 9"}}, "data": [{"smiles": "Nc1ccncc1", "note": "[4-AP, 4-Amino pyridine]", "values": [{"measurement": "Conduction in demyelinated axons", "setting": "[1]", "value": "improve conduction"}, {"measurement": "Head left positioning, left beating non-fatiguing nystagmus", "setting": "[2]; test 4 (Active, 4-AP 10 mg twice daily), tests 1-3: 6, 2, 2", "value": 4, "unit": "degrees/second"}, {"measurement": "Head left position, left beating non-fatiguing nystagmus", "setting": "[2]; test 5 (1st open-label round, 4AP 10 mg twice daily)", "value": 2, "unit": "degrees/second"}, {"measurement": "Delay of onset of left beating nystagmus in left dix hallpike position", "setting": "[2]; test 6 (2nd open-label round, 4AP 10 mg twice daily), immediate on tests 1-4", "value": 50, "unit": "s"}, {"measurement": "Down beating nystagmus with head tilted down", "setting": "[2]; tests 1-4, including active phase", "value": "present"}, {"measurement": "Downbeat nystagmus (DBN)", "setting": "[3]", "value": "relieve downbeat nystagmus"}, {"measurement": "Raw score: Difficulty in standing for more than 5 minutes", "setting": "[4]; Cluster A, prior to therapy 0", "value": 0}, {"measurement": "Raw score: Difficulty moving body position (e.g., from chair to bed or toilet)", "setting": "[4]; Cluster A, prior to therapy 1", "value": 0}, {"measurement": "Raw score: Difficulty maintaining balance while looking over shoulder", "setting": "[4]; Cluster A, prior to therapy 2", "value": 0}, {"measurement": "Raw score: Difficulty rising unaided from a sitting position or from sitting on the floor", "setting": "[4]; Cluster A, prior to therapy 2", "value": 0}, {"measurement": "Raw score: Impairment of gait", "setting": "[4]; Cluster A, prior to therapy 2", "value": 0}, {"measurement": "Raw score: Inability to maintain stability while standing with eyes closed or with feet together", "setting": "[4]; Cluster A, prior to therapy 2", "value": "1 (Sometimes present)"}, {"measurement": "Raw score: Difficulty conversing while walking", "setting": "[4]; Cluster A, prior to therapy 3", "value": "1 (Sometimes present)"}, {"measurement": "Raw score: Difficulty tossing objects from hand to hand while walking", "setting": "[4]; Cluster A, prior to therapy 3", "value": "1 (Sometimes present)"}, {"measurement": "Raw score: Inability to maintain heel-to-toe gait", "setting": "[4]; Cluster A, prior to therapy 3", "value": "1 (Sometimes present)"}, {"measurement": "Weighted Score: Difficulty moving body position (e.g., from chair to bed or toilet)", "setting": "[4]; Cluster A, raw score x weight 1, prior to therapy 1", "value": 0}, {"measurement": "Weighted Score: Difficulty rising unaided from a sitting position or from sitting on the floor", "setting": "[4]; Cluster A, raw score x weight 1, prior to therapy 2", "value": 0}, {"measurement": "Weighted Score: Difficulty tossing objects from hand to hand while walking", "setting": "[4]; [5]", "value": 1}, {"measurement": "Weighted Score: Inability to maintain heel-to-toe gait", "setting": "[4]; [5]", "value": 1}, {"measurement": "Weighted Score: Difficulty in standing for more than 5 minutes", "setting": "[4]; Cluster A, raw score x weight 2, prior to therapy 0", "value": 0}, {"measurement": "Weighted Score: Difficulty maintaining balance while looking over shoulder", "setting": "[4]; Cluster A, raw score x weight 2, prior to therapy 4", "value": 0}, {"measurement": "Weighted Score: Impairment of gait", "setting": "[4]; [6]", "value": 0}, {"measurement": "Weighted Score: Inability to maintain stability while standing with eyes closed or with feet together", "setting": "[4]; [6]", "value": 3}, {"measurement": "Weighted Score: Difficulty conversing while walking", "setting": "[4]; Cluster A, raw score x weight 3, prior to therapy 9", "value": 3}, {"measurement": "Raw score: Oscillopsia (perception of stationary objects moving)", "setting": "[4]; Cluster B, prior to therapy 2", "value": 0}, {"measurement": "Raw score: Persistence or perseveration of proprioceptive sensations (e.g., feeling motion after coming to rest)", "setting": "[4]; Cluster B, prior to therapy 2", "value": 0}, {"measurement": "Raw score: Persistent sensation of walking on soft or moving surface", "setting": "[4]; Cluster B, prior to therapy 2", "value": 0}, {"measurement": "Raw score: Vertigo", "setting": "[4]; Cluster B, prior to therapy 2", "value": 0}, {"measurement": "Raw score: Vestibular seizures", "setting": "[4]; Cluster B, prior to therapy 2", "value": 0}, {"measurement": "Raw score: Persistent sensation of being off-balance or tilted", "setting": "[4]; Cluster B, prior to therapy 3", "value": "1 (Sometimes present)"}, {"measurement": "Weighted Score: Vertigo", "setting": "[4]; Cluster B, raw score x weight 2, prior to therapy 6", "value": 0}, {"measurement": "Weighted Score: Persistent sensation of walking on soft or moving surface", "setting": "[4]; Cluster B, raw score x weight 3, prior to therapy 6", "value": 0}, {"measurement": "Weighted Score: Oscillopsia (perception of stationary objects moving)", "setting": "[4]; [7]", "value": 0}, {"measurement": "Weighted Score: Persistence or perseveration of proprioceptive sensations (e.g., feeling motion after coming to rest)", "setting": "[4]; [7]", "value": 0}, {"measurement": "Weighted Score: Persistent sensation of being off-balance or tilted", "setting": "[4]; Cluster B, raw score x weight 4, prior to therapy 12", "value": 4}, {"measurement": "Weighted Score: Vestibular seizures", "setting": "[4]; Cluster B, raw score x weight 5, prior to therapy 10", "value": 0}, {"measurement": "Raw score: Apathy, listlessness, blunting of affect", "setting": "[4]; Cluster C, prior to therapy 1", "value": 0}, {"measurement": "Raw score: Emotional lability or exaggerated emotions", "setting": "[4]; Cluster C, prior to therapy 1", "value": 0}, {"measurement": "Raw score: Persistent or frequent irritability", "setting": "[4]; Cluster C, prior to therapy 1", "value": 0}, {"measurement": "Raw score: Persisting difficulty with registration or retention of newly presented information in any modality", "setting": "[4]; Cluster C, prior to therapy 2", "value": "1 (Sometimes present)"}, {"measurement": "Raw score: Inability to perform two simple tasks concurrently (multitasking)", "setting": "[4]; Cluster C, prior to therapy 3", "value": "1 (Sometimes present)"}, {"measurement": "Raw score: Inability to tolerate distraction (e.g., inability to complete simple task or resume conversation after interruption)", "setting": "[4]; Cluster C, prior to therapy 3", "value": "1 (Sometimes present)"}, {"measurement": "Raw score: Intolerance of noise, light, or commotion", "setting": "[4]; Cluster C, prior to therapy 3", "value": "1 (Sometimes present)"}, {"measurement": "Raw score: Slowed speed of mental processing or responding", "setting": "[4]; Cluster C, prior to therapy 3", "value": 0}, {"measurement": "Weighted Score: Apathy, listlessness, blunting of affect", "setting": "[4]; [8]", "value": 0}, {"measurement": "Weighted Score: Emotional lability or exaggerated emotions", "setting": "[4]; [8]", "value": 0}, {"measurement": "Weighted Score: Persistent or frequent irritability", "setting": "[4]; [8]", "value": 0}, {"measurement": "Weighted Score: Persisting difficulty with registration or retention of newly presented information in any modality", "setting": "[4]; Cluster C, raw score x weight 2, prior to therapy 4", "value": 2}, {"measurement": "Weighted Score: Slowed speed of mental processing or responding", "setting": "[4]; Cluster C, raw score x weight 2, prior to therapy 6", "value": 0}, {"measurement": "Weighted Score: Inability to perform two simple tasks concurrently (multitasking)", "setting": "[4]; [9]", "value": 3}, {"measurement": "Weighted Score: Inability to tolerate distraction (e.g., inability to complete simple task or resume conversation after interruption)", "setting": "[4]; [9]", "value": 3}, {"measurement": "Weighted Score: Intolerance of noise, light, or commotion", "setting": "[4]; Cluster C, raw score x weight 4, prior to therapy 12", "value": 4}, {"measurement": "Raw score: Diplopia", "setting": "[4]; Cluster D, prior to therapy 0", "value": 0}, {"measurement": "Raw score: Headache", "setting": "[4]; Cluster D, prior to therapy 1", "value": "2 (Often present)"}, {"measurement": "Raw score: Nystagmus", "setting": "[4]; Cluster D, prior to therapy 1", "value": 0}, {"measurement": "Raw score: Anergy, chronic fatigue, hypersomnia", "setting": "[4]; Cluster D, prior to therapy 2", "value": 0}, {"measurement": "Raw score: Insomnia", "setting": "[4]; Cluster D, prior to therapy 2", "value": "2 (Often present)"}, {"measurement": "Raw score: Difficulty in accommodation or focus", "setting": "[4]; Cluster D, prior to therapy 3", "value": "1 (Sometimes present)"}, {"measurement": "Raw score: Impairment of tracking an object in motion", "setting": "[4]; Cluster D, prior to therapy 3", "value": 0}, {"measurement": "Weighted Score: Insomnia", "setting": "[4]; Cluster D, raw score x weight 1, prior to therapy 2", "value": 2}, {"measurement": "Weighted Score: Diplopia", "setting": "[4]; Cluster D, raw score x weight 2, prior to therapy 0", "value": 0}, {"measurement": "Weighted Score: Headache", "setting": "[4]; Cluster D, raw score x weight 2, prior to therapy 2", "value": 4}, {"measurement": "Weighted Score: Anergy, chronic fatigue, hypersomnia", "setting": "[4]; Cluster D, raw score x weight 3, prior to therapy 6", "value": 0}, {"measurement": "Weighted Score: Difficulty in accommodation or focus", "setting": "[4]; Cluster D, raw score x weight 3, prior to therapy 9", "value": 3}, {"measurement": "Weighted Score: Nystagmus", "setting": "[4]; Cluster D, raw score x weight 4, prior to therapy 4", "value": 0}, {"measurement": "Weighted Score: Impairment of tracking an object in motion", "setting": "[4]; Cluster D, raw score x weight 4, prior to therapy 12", "value": 0}, {"measurement": "Total weighted score of symptoms", "setting": "[4]; prior to therapy 165", "value": 33, "unit": "points"}]}]}
